Test results as given in article PMC5909127, “Optimization of a “bump-and-hole” approach to allele-selective BET bromodomain inhibition” (Chemical Science, 2018).

How the values were obtained:
[1] = biological target: T1, BRD4 BD1 WT (Homo sapiens, UniProt O60885); assay: ITC; assay type: binding; settings: for ΔH BRD4 BD1 WT: ITC
[2] = biological target: T2, BRD4 BD1 L/V (Homo sapiens, UniProt O60885, L94V); assay: ITC; assay type: binding; settings: for N BRD4 BD1 L/V: ITC stoichiometry; for Kd: Kd BRD4 BD1 L/V
[3] = biological target: T2, BRD4 BD1 L/V; assay: competitive AlphaLISA; assay type: binding
[4] = tested on: GFP-BRD4 L/V constructs with NF-κB-RE/luc2P reporter in HEK293T cells; assay: NF-κB luciferase assay; assay type: cell-based, human; settings: 1 µM, inhibiting either individual BD of BRD4
Description: To provide additional functional insights into the individual roles of BD1 vs. BD2 beyond chromatin binding, a luciferase assay was developed to monitor the expression of NF-κB target genes, inspired by work of Zou et al.[45] […] This luciferase induction was maintained with L/V mutations (but not L/A), consistent again with more WT-like functionality of L/V compared to L/A (Fig. 9A).
12 – NF-κB Luciferase Assay
Luciferase experiments were performed in human HEK293T cells seeded in a 24-well plate at 100 000 cells in […]
pBABE NF-κB-RE/luc2P reporter plasmid. Cells were transfected using Lipofectamine™ LTX (Invitrogen) with PLUS™ reagent, with each well receiving 0.5 µg of each plasmid, 2.5 µl LTX and 0.5 µl PLUS reagent. The next day cells were treated with compounds, giving a final concentration of 1 µM compound and 0.01% DMSO. 6 hours later cells were washed with PBS, lysed with passive lysis buffer (Promega) and stored at -20°C.
Luciferase activity was measured suing the Promega luciferase assay. In a black 384-well plate 3µl of clarified lysate was mixed with 15µl luciferase assay reagent and after 15 minutes luminescence was measured in a Pherastar FS. […]
NMR spectra were recorded on a Bruker 500 Ultrashield or a Bruker Ascend 400. […] High Resolution Mass Spectra (HRMS) were recorded on a Bruker micrOTOF. […]

[5] = biological target: T1, BRD4 BD1 WT; assay: competitive AlphaLISA; assay type: binding
[6] = biological target: T3, BRD2 BD1 L/V (Homo sapiens, UniProt P25440, L110V); assay: ITC; assay type: binding; settings: for ΔH BRD2 BD1 L/V: ITC
T3 sequence (P25440 71-176 L110V limits assumed): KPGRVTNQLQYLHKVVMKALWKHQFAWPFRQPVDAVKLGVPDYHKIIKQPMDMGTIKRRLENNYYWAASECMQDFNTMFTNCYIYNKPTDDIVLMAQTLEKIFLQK

[7] = biological target: T4, BRD3 BD2 L/V (Homo sapiens, UniProt Q15059, L345V); assay: ITC; assay type: binding; settings: for ΔH BRD3 BD2 L/V: ITC
T4 sequence (Q15059 306-416 L345V limits assumed): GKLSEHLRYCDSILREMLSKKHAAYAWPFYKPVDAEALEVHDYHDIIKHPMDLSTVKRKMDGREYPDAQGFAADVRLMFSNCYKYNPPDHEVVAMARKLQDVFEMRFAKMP

[8] = biological target: BRDT BD2 L/V (Homo sapiens, UniProt Q58F21, L306V); assay: competitive AlphaLISA; assay type: binding
[9] = biological target: T5, BRD4 BD2 L/V (Homo sapiens, UniProt O60885, L387V); assay: ITC; assay type: binding; settings: for ΔH BRD4 BD2 L/V: ITC
[10] = biological target: T6, BRD3 BD2 WT (Homo sapiens, UniProt Q15059); assay: competitive AlphaLISA; assay type: binding
T6 sequence (Q15059 306-416): as the sequence (Q15059 306-416 L345V limits assumed) above, with V40L counted along it

[11] = in vitro; settings: PAMPA, pH 7.4
[12] = biological target: T7, BRD2 BD2 L/V (Homo sapiens, UniProt P25440, L383V); assay: ITC; assay type: binding; settings: for ΔH BRD2 BD2 L/V: ITC
T7 sequence (P25440 344-455 L383V): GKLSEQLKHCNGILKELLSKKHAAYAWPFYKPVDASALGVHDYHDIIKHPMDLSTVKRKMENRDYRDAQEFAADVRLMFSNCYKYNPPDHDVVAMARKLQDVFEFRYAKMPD

[13] = biological target: T3, BRD2 BD1 L/V; assay: competitive AlphaLISA; assay type: binding
[14] = biological target: BRDT BD1 L/V (Homo sapiens, UniProt Q58F21, L63V); assay: competitive AlphaLISA; assay type: binding
[15] = biological target: T4, BRD3 BD2 L/V; assay: competitive AlphaLISA; assay type: binding
[16] = biological target: T7, BRD2 BD2 L/V; assay: competitive AlphaLISA; assay type: binding
[17] = Plasma Half-life; settings: BALB/c, mouse, pH 7.4
[18] = biological target: WT BET bromodomains (BD1 and BD2 of BRD2, BRD3 and BRD4); assay: competitive AlphaLISA (Bio-JQ1 displacement); assay type: binding, human; settings: mean and SD of all somatic bromodomains; active enantiomer concentration
[19] = biological target: T8, BRD2 BD1 WT (Homo sapiens, UniProt P25440); assay: ITC; assay type: binding
T8 sequence (P25440 71-176): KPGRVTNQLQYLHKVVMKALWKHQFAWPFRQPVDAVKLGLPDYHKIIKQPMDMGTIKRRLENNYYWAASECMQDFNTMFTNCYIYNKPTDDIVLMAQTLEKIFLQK

[20] = biological target: T5, BRD4 BD2 L/V; assay: competitive AlphaLISA; assay type: binding
[21] = biological target: T9, BRD3 BD1 L/V (Homo sapiens, UniProt Q15059, L70V); assay: competitive AlphaLISA; assay type: binding
T9 sequence (Q15059 24-144 L70V limits assumed): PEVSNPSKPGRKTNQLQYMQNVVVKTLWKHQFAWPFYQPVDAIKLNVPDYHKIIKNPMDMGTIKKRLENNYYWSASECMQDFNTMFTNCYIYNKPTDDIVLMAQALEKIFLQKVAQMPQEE

[22] = biological target: T10, BRD4 BD2 WT (Homo sapiens, UniProt O60885); assay: competitive AlphaLISA; assay type: binding
[23] = biological target: T6, BRD3 BD2 WT; assay: ITC; assay type: binding; settings: for ΔH BRD3 BD2 WT: ITC
[24] = biological target: T9, BRD3 BD1 L/V; assay: ITC; assay type: binding; settings: for ΔH BRD3 BD1 L/V: ITC
[25] = biological target: T10, BRD4 BD2 WT; assay: ITC; assay type: binding
[26] = Intrinsic Clearance; settings: mouse liver microsomes
[27] = biological target: T8, BRD2 BD1 WT; assay: competitive AlphaLISA; assay type: binding
[28] = tested on: L/V BET bromodomains (BD1 and BD2 of BRD2, BRD3 and BRD4); assay: competitive AlphaLISA (Bio-JQ1 displacement); assay type: binding, human; settings: for AlphaLISA pIC50 ± SD Δ: L/V minus WT
[29] = tested on: L/V somatic BET bromodomains; assay: ITC; settings: for ITC pKd ± SD Δ: L/V minus WT
[30] = biological target: T11, BRD3 BD1 WT (Homo sapiens, UniProt Q15059); assay: competitive AlphaLISA; assay type: binding
T11 sequence (Q15059 24-144): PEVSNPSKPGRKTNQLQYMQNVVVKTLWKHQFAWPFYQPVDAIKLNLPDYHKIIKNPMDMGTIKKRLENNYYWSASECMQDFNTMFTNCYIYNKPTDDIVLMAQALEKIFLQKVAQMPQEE

[31] = biological target: BRDT BD1 WT (Homo sapiens, UniProt Q58F21); assay: competitive AlphaLISA; assay type: binding
[32] = biological target: WT somatic BET bromodomains; assay: ITC; settings: mean and SD of all somatic bromodomains
[33] = biological target: T12, BRD2 BD2 WT (Homo sapiens, UniProt P25440); assay: competitive AlphaLISA; assay type: binding
T12 sequence (P25440 344-455): as the sequence (P25440 344-455 L383V) above, with V40L counted along it

[34] = biological target: BRDT BD2 WT (Homo sapiens, UniProt Q58F21); assay: competitive AlphaLISA; assay type: binding
[35] = biological target: T11, BRD3 BD1 WT; assay: ITC; assay type: binding
[36] = biological target: T12, BRD2 BD2 WT; assay: ITC; assay type: binding
[37] = AlphaLISA pIC50 Value BRD4 BD1 L/V
[38] = AlphaLISA pIC50 Value BRD4 BD1 WT

CC[C@@H](C(=O)OC)[C@@H]1N=C(c2ccc(Cl)cc2)c2ccc(OC)cc2-n2c(C)nnc21 (relative stereo) [(2R,3S)-8]
Kd [1]: > 60 µM
N BRD4 BD1 L/V ([2]; total compound concentration): 0.85 ±0.01
ΔH BRD4 BD1 L/V ([2]; ITC, total compound concentration): -27.2 ± 0.42 kJ/mol
Kd ([2]; ITC of separated enantiomers and racemates, total compound concentration): 0.44 ± 0.05 µM
ΔpIC50 BRD4 BD1 ([3]; L/V minus WT, total compound concentration): 1.8
IC50 ([3]; pIC50 BRD4 BD1 L/V, separated enantiomers test, total compound concentration): 1.26 µM
effect on NF-κB signalling [4]: strongly impacted on NF-κB signalling
IC50 ([5]; pIC50 BRD4 BD1 WT, separated enantiomers test, total compound concentration): 79.4 µM

CCNC(=O)[C@H](C)[C@@H]1N=C(c2ccc(Cl)cc2)c2ccc(OC)cc2-n2c(C)nnc21 (relative stereo) [Compound 21]
Kd [6]: 0.99 µM
ΔH BRD2 BD1 L/V [6]: -36.8 kJ/mol
N BRD2 BD1 L/V ([6]; ITC stoichiometry): 0.97
Kd [7]: 0.8 µM
ΔH BRD3 BD2 L/V [7]: -28 kJ/mol
N BRD3 BD2 L/V ([7]; ITC stoichiometry): 0.90
IC50 [8]: 1.58 µM
Kd [9]: 0.32 µM
ΔH BRD4 BD2 L/V [9]: -18.4 kJ/mol
N BRD4 BD2 L/V ([9]; ITC stoichiometry): 1.06
IC50 [10]: 15.8 µM
Kd [1]: 39 µM
ΔH BRD4 BD1 WT [1]: -13.8 kJ/mol
Papp [11]: 40 nm/s
ΔH BRD4 BD1 L/V ([2]; ITC): -24.7 kJ/mol
N BRD4 BD1 L/V [2]: 0.88
Kd ([2]; ITC, 30°C): 0.37 µM
Kd [12]: 0.23 µM
ΔH BRD2 BD2 L/V [12]: -20.1 kJ/mol
N BRD2 BD2 L/V ([12]; ITC stoichiometry): 0.84
IC50 [13]: 2 µM
IC50 [14]: 2.51 µM
IC50 [15]: 0.501 µM
IC50 [16]: 1 µM
half-life at 50 µM [17]: > 3 h
AlphaLISA pIC50 ± SD WT [18]: 4.7 ± 0.3
Kd [19]: > 60 µM
IC50 [20]: 1.26 µM
IC50 [21]: 0.501 µM
IC50 [22]: 31.6 µM
Kd [23]: 11 µM
ΔH BRD3 BD2 WT [23]: -18.8 kJ/mol
N BRD3 BD2 WT ([23]; ITC stoichiometry): 0.46
IC50 [3, 37]: 1 µM
Kd [24]: 0.41 µM
ΔH BRD3 BD1 L/V [24]: -44.8 kJ/mol
N BRD3 BD1 L/V ([24]; ITC stoichiometry): 0.92
Kd [25]: > 60 µM
CL int [26]: 1.5 ml min^–1 g^–1
IC50 [27]: 39.8 µM
AlphaLISA pIC50 ± SD Δ [28]: 1.3 ± 0.2
AlphaLISA pIC50 ± SD L/V ([28]; mean and SD of all somatic bromodomains, active enantiomer concentration): 6.0 ± 0.2
IC50 [5, 38]: 25.1 µM
ITC pKd ± SD Δ [29]: 1.8 ± 0.5
ITC pKd ± SD L/V ([29]; mean and SD of all somatic bromodomains): 6.3 ± 0.2
IC50 [30]: 5.01 µM
IC50 [31]: 50.1 µM
ITC pKd ± SD WT [32]: 4.5 ± 0.4
IC50 [33]: 15.8 µM
IC50 [34]: 25.1 µM

C=CC[C@@H](C(=O)OC)[C@@H]1N=C(c2ccc(Cl)cc2)c2cc(OC)ccc2-n2c(C)nnc21 (racemic) [Compound 5, (+-)methyl (R)-2-((S)-6-(4-chlorophenyl)-8-methoxy-1-methyl-4H-benzo[f][1,2,4]triazolo[4,3-a][1,4]diazepin-4-yl)pent-4-enoate]
Kd [35]: 1.5 µM
ΔH BRD3 BD1 WT ([35]; ITC): -9.62 kJ/mol
N BRD3 BD1 WT ([35]; ITC stoichiometry): 0.85
Kd [6]: 0.47 µM
ΔH BRD2 BD1 L/V [6]: -43.1 kJ/mol
Kd [7]: 0.31 µM
ΔH BRD3 BD2 L/V [7]: -35.6 kJ/mol
Kd [9]: 0.17 µM
ΔH BRD4 BD2 L/V [9]: -26.8 kJ/mol
IC50 [10]: 10 µM
Kd [1]: 9.7 µM
ΔH BRD4 BD1 WT [1]: -14.6 kJ/mol
N BRD4 BD1 WT ([1]; ITC stoichiometry): 1.10
Papp [11]: 127 nm/s
ΔH BRD4 BD1 L/V ([2]; ITC): -31 kJ/mol
Kd ([2]; ITC, 30°C): 0.18 µM
Kd [12]: 0.24 µM
ΔH BRD2 BD2 L/V [12]: -24.7 kJ/mol
IC50 [13]: 1 µM
IC50 [14]: 2 µM
IC50 [15]: 0.126 µM
IC50 [16]: 0.158 µM
half-life at 50 µM [17]: > 3 h
AlphaLISA pIC50 ± SD WT [18]: 5.1 ± 0.1
Kd [19]: 8.4 µM
ΔH BRD2 BD1 WT ([19]; ITC): -16.7 kJ/mol
N BRD2 BD1 WT ([19]; ITC stoichiometry): 1.0
IC50 [20]: 0.251 µM
IC50 [21]: 0.126 µM
IC50 [22]: 10 µM
Kd [23]: 23 µM
ΔH BRD3 BD2 WT [23]: -15.5 kJ/mol
IC50 [3, 37]: 0.316 µM
Kd [24]: 0.27 µM
ΔH BRD3 BD1 L/V [24]: -47.3 kJ/mol
ΔH BRD4 BD2 WT ([25]; ITC): -9.2 kJ/mol
N BRD4 BD2 WT ([25]; ITC stoichiometry): 0.98
CL int [26]: 6.7 ml min^–1 g^–1
IC50 [27]: 10 µM
AlphaLISA pIC50 ± SD Δ [28]: 1.5 ± 0.3
IC50 [5, 38]: 7.94 µM
ITC pKd ± SD Δ [29]: 1.5 ± 0.5
IC50 [30]: 3.98 µM
IC50 [31]: 20 µM
ITC pKd ± SD WT [32]: 5.1 ± 0.4
Kd [36]: 5.8 µM
ΔH BRD2 BD2 WT ([36]; ITC): -9.62 kJ/mol
N BRD2 BD2 WT ([36]; ITC stoichiometry): 0.75
IC50 [33]: 10 µM
